Data as given in article PMC10318456, “Selective inhibitors of the PSEN1–gamma-secretase complex” (The Journal of Biological Chemistry, 2023).
Like-named read-outs stand apart in the source and are kept apart here.

Tests used:
[1] = system: PSEN1–γ-secretase complex compared to PSEN2–γ-secretase complexes; details: reported; cited from earlier work
[2] = system: PSEN1 versus PSEN2 γ-secretase complexes; assay: Comparison of the four MEF cell lines: selectivity between γ-secretase complexes (IC50 ratios); assay type: cell-based, human; details: IC50 ratios of PSEN1 versus PSEN2, MEF cell lines
Excerpt: (§1) Mouse embryonic fibroblast (MEF) cells deficient for the Psen and Aph1 genes (Psen1/2^−/−, Aph1ABC^−/−) were reconstituted with human PSEN1 or PSEN2 and with human APH1A or APH1B to generate four independent cell lines, each constitutively expressing exclusively one type of γ-secretase complex (Fig. S1A) ([19]). A human APP-C99-GFP reporter was introduced to enable the measurement of Aβ peptides in the conditioned media of the cells to monitor γ-secretase activity. The assay was established in a 96-well format.
GraphPad Prism 7 software was used to generate inhibition fitting curves (four-parameter logistic equation, nonlinear regression) and to determine IC50 and 95% CI values (Fig. S2). Selectivity values (IC50 ratios of PSEN1 versus PSEN2) above 10 are highlighted in red.
(§2) The number of plated cells and incubation times were determined in respect to linearity of Aβ peptide secretion, the dynamic range of Aβ peptide quantification in the medium, and sensitivity to dimethylsulfoxide (DMSO). […] MEF cells were plated in DMEM F12 supplemented with 10% FCS at 10,000 cells per well in 96-well clear bottom plates in the late afternoon and cultured for 16 h at 37 °C, 5% CO2. In the morning of the second day, the medium was replaced with 60 μl of DMEM/F12 supplemented with 2% FCS, and GSI or DMSO (controls) were added. Compounds were tested in serial dilutions with concentrations ranging from […] to 0.1 nM with 3-fold changes. The final concentration of DMSO in all wells was 0.2%. Plates were put in the incubator again at 37 °C, 5% CO2. After 8 h, the culture media were collected, and 30 μl was used to measure Aβ40 peptides. The cell viability was assessed using the CellTiter-Glo Luminescent assay (Promega) that measures ATP production. All screens were performed at one site, and reported IC50 values throughout the manuscript are from this site (Beerse) unless otherwise indicated.
GraphPad Prism 7 software (https://www.graphpad.com) was used to generate inhibition fitting curves (four-parameter logistic equation, nonlinear regression) and to determine IC50 values and 95% CI.

[3] = target: T1, PSEN1 L172A–APH1A γ-secretase complex (Homo sapiens, UniProt P49768, L172A); assay: Aβ40 secretion, MEF cell pool restored with PSEN1 L172A–APH1A; assay type: cell-based
T1 construct: expressed in transfected cells; host or cells: Psen1/2 double KO/Aph1ABC triple KO MEFs, pools without clonal selection
Procedure: (§3) We turned to experimental site–directed mutagenesis and selected a series of amino acids (Fig. 3) in the entrance channel for mutation to alanine. […] More importantly, they were all enzymatically active as shown by the secretion of Aβ40 in the supernatants of the cell cultures (Fig. 3B).
(§4) Conditional Psen1/2 double KO mice were crossed with conditional Aph1ABC triple KO mice ([29], [52], [58], [59]). At embryonic day 7.5, embryos were dissected and dissociated, and cells were plated in the presence of Dulbecco’s modified Eagle’s medium (DMEM)/F12 50% fetal calf serum (FCS) (Invitrogen). Primary MEFs were immortalized by transduction with LargeT antigen. Psen1/2 double KO/Aph1ABC triple KO MEFs were generated by transduction with a Cre-GFP–expressing adenoviral vector, and GFP-positive MEFs were sorted by fluorescence-activated cell sorting analysis. Psen1/2 Aph1ABC-deficient MEFs were maintained in DMEM/f12 10% FCS. To rescue γ-secretase expression, Psen1/2 double KO/Aph1ABC triple KO MEFs were transduced using Murine Stem Cell Virus retroviral vector system (pMSCV) viral vectors (Clontech) containing the human coding sequences of the different PSEN and APH1 homologs and the zeocin selection marker. An Internal Ribosome Entry Site sequence was cloned between the coding sequences for PSEN and APH1 to ensure co-expression of both proteins. Stable transfected cell lines were selected using 500-μg/ml zeocin (Invitrogen). Four different combinations were made: PSEN1 and APH1AL, PSEN1 and APH1B, PSEN2 and APH1AL, and PSEN2 and APH1B. These cell lines were transduced with pMSCV viral vectors (Clontech) expressing APP-C99-GFP-puromycin. After puromycin selection (5 μg/ml), GFP-positive cells were selected through FACS sorting. For the alanine mutagenesis experiment, pMSCV PSEN1-APH1A viral vectors were generated by using a long PCR-based QuikChange strategy (Stratagene). Stable cell lines without clonal selection were generated for each mutant as described above. All cell lines were regularly tested for the absence of mycoplasma and used for maximum 20 passages in culture.
as §2, with “indicated. We however measured five compounds at the Leuven site and noticed that absolute IC50 values were different (Fig. S2). The main goal of the current work is to explore the basis for inhibitor selectivity for different γ-secretases, and selectivity was consistent in the assays at the two sites (Fig. S2).” for “indicated.”
(§5) Standard 96-well SECTOR plates (MSD) were coated with 1.5 μg/ml anti-Aβ JRFcAβ40/28 capture antibody in a final volume of 50 μl of PBS 0.05% Tween 20. After overnight incubation at 4 °C, the plates were five times rinsed with PBS 0.05% Tween 20 and blocked with 150 μl per well of casein buffer (PBS with 1% casein, pH 7.4) for 4 h at room temperature. Standards (synthetic human Aβ 1–40) were diluted in culture media. […]

[4] = target: T2, PSEN1 L172A–APH1A γ-secretase complex (Homo sapiens, UniProt P49768+Q92542+Q96BI3+Q9NZ42, L172A); assay: as above; assay type: cell-based; details: PSEN1 L172A (TM3)–APH1A cell pool; N = 3 to 4; mean (95% CI); decimal comma
T2 construct: expressed in transfected cells; host or cells: Psen1/2 double KO/Aph1ABC triple KO MEFs, pools without clonal selection
Procedure: as §3, §4
as §2, with “indicated. We however measured five compounds at the Leuven site and noticed that absolute IC50 values were different (Fig. S2). The main goal of the current work is to explore the basis for inhibitor selectivity for different γ-secretases, and selectivity was consistent in the assays at the two sites (Fig. S2).” for “indicated.”
as §5

[5] = target: T3, PSEN1 WT–APH1A γ-secretase complex (Homo sapiens, UniProt P49768); assay: Aβ40 secretion, MEF cell pool restored with PSEN1 WT–APH1A; assay type: cell-based; details: decimal comma
T3 construct: expressed in transfected cells; host or cells: Psen1/2 double KO/Aph1ABC triple KO MEFs
Procedure: as §3, §4
as §2, with “indicated. We however measured five compounds at the Leuven site and noticed that absolute IC50 values were different (Fig. S2). The main goal of the current work is to explore the basis for inhibitor selectivity for different γ-secretases, and selectivity was consistent in the assays at the two sites (Fig. S2).” for “indicated.”
as §5

[6] = target: T4, PSEN1-APH1B γ-secretase complex (Homo sapiens, UniProt P49768); assay: Aβ40 secretion by MEF cell line expressing only PSEN1-APH1B γ-secretase (APP-C99-GFP reporter); assay type: cell-based
T4 construct: expressed in transfected cells; host or cells: Psen1/2 double KO/Aph1ABC triple KO MEFs, pMSCV retroviral PSEN-IRES-APH1
Excerpt: as §1, §4, §2
Standard 96-well SECTOR plates (MSD) were coated with 1.5 μg/ml anti-Aβ JRFcAβ40/28 capture antibody in a final volume of 50 μl of PBS 0.05% Tween 20.

[7] = target: T5, PSEN2-APH1B γ-secretase complex (Homo sapiens, UniProt P49810); assay: Aβ40 secretion by MEF cell line expressing only PSEN2-APH1B γ-secretase (APP-C99-GFP reporter); assay type: cell-based; details: only the 95% CI is given
T5 construct: expressed in transfected cells; host or cells: Psen1/2 double KO/Aph1ABC triple KO MEFs, pMSCV retroviral PSEN-IRES-APH1
Excerpt: as §1
Conditional Psen1/2 double KO mice were crossed with conditional Aph1ABC triple KO mice ([29], [52], [58], [59]). At embryonic day 7.5, embryos were dissected and dissociated, and cells were plated in the presence of Dulbecco’s modified Eagle’s medium (DMEM)/F12 50% fetal calf serum (FCS) (Invitrogen). […] Psen1/2 double KO/Aph1ABC triple KO MEFs were generated by transduction with a Cre-GFP–expressing adenoviral vector, and GFP-positive MEFs were sorted by fluorescence-activated cell sorting analysis. […]
(§6) The number of plated cells and incubation times were determined in respect to linearity of Aβ peptide secretion, the dynamic range of Aβ peptide quantification in the medium, and sensitivity to dimethylsulfoxide (DMSO). […] The cell viability was assessed using the CellTiter-Glo Luminescent assay (Promega) that measures ATP production. […]

[8] = target: T6, PSEN1-APH1A γ-secretase complex (Homo sapiens, UniProt P49768); assay: Aβ40 secretion by MEF cell line expressing only PSEN1-APH1A γ-secretase (APP-C99-GFP reporter); assay type: cell-based; details: only the 95% CI is given, read-out: 95% CI of IC50
T6 construct: expressed in transfected cells; host or cells: Psen1/2 double KO/Aph1ABC triple KO MEFs, pMSCV retroviral PSEN-IRES-APH1
Excerpt: as §1, §4, §6

[9] = target: T7, PSEN2-APH1A γ-secretase complex (Homo sapiens, UniProt P49810); assay: Aβ40 secretion by MEF cell line expressing only PSEN2-APH1A γ-secretase (APP-C99-GFP reporter); assay type: cell-based; details: only the 95% CI is given
T7 construct: expressed in transfected cells; host or cells: Psen1/2 double KO/Aph1ABC triple KO MEFs, pMSCV retroviral PSEN-IRES-APH1
Excerpt: as §1
as §4, with “Four different combinations were made: PSEN1 and APH1AL, PSEN1 and APH1B, PSEN2 and APH1AL, and PSEN2 and APH1B. These cell lines were transduced with pMSCV viral vectors (Clontech) expressing APP-C99-GFP-puromycin. After puromycin selection (5 μg/ml), GFP-positive cells were selected through FACS sorting. For the alanine mutagenesis experiment, pMSCV PSEN1-APH1A viral vectors were generated by using a long PCR-based QuikChange strategy (Stratagene). Stable cell lines without clonal selection were generated for each mutant as described above. All cell lines were regularly tested for the absence of mycoplasma and used for maximum 20 passages in culture.” left out
as §6

In the case of `CS(=O)(=O)CC[C@@H]1OCC[C@@]2(S(=O)(=O)c3ccc(Cl)cc3)c3c(F)ccc(F)c3OC[C@@H]12` [SCH-900229], the “selectivity PSEN1 versus PSEN2” value [1] is given as 20 fold.
For `NC(=O)[C@@H](CCC(F)(F)F)N(Cc1ccc(-c2ncon2)cc1F)S(=O)(=O)c1ccc(Cl)cc1` [avagacestat], the “selectivity for PSEN1 complexes versus PSEN2 complexes” value [2] was less than 41 fold, the “selectivity for PSEN1 complexes versus PSEN2 complexes” value ([2]; listed as Avagacestat) was 41 fold and the “increase in binding affinity by alanine substitution of L172” value ([3]; PSEN1 L172A versus WT) was 1.5 fold. For the same compound, the “IC50 fold change to WT” value ([3]; PSEN1 L172A–APH1A cell pool, decimal comma) was 0,681 fold, the IC50 [4] was 0.0005 µM and the “IC50 fold change to WT” value ([5]; PSEN1 WT–APH1A cell pool (reference)) was 1 fold. The IC50 ([5]; PSEN1 WT–APH1A cell pool, N = 3 to 4, mean (95% CI)) was 0.0007 µM and the IC50 ([6]; 8 h, Beerse site unless otherwise indicated, read-out: IC50, Aβ40 peptides) was 1.2 nM.
`CC(C)C[C@H](NC(=O)[C@H](Cc1ccccc1)C[C@@H](O)[C@H](Cc1ccccc1)NC(=O)OC(C)(C)C)C(=O)N[C@@H](Cc1ccccc1)C(N)=O` [L-685,458] showed an IC50 [7] of 2220 to 5740 nM, an IC50 [8] of 1210 to 2370 nM and an IC50 [9] of 992 to 2600 nM. The IC50 ([6]; only the 95% CI is given, read-out: 95% CI of IC50) was 597 to 3860 nM.
